The record followed here is US9994556B2, “Triazole modified coumarin and biphenyl amide-based HSP90 inhibitors” (THE UNIVERSITY OF KANSAS, priority 2014, dated 2018).

What is called IC50 is the concentration at which inhibition is half-maximal.

One assay relates to SKBr3 cells. Description: MTS/PMS cell viability assay, SKBr3. The format is cell-based. The note with it: Homo sapiens, SK-BR-3; Table 2 biphenyl triazole analogues; 72 hr; mean ± standard deviation; read-out: IC50 SKBr3. In short, it runs like this: (§1)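 Cells seeded at 2000/well in Advanced DMEM/F12 with 10% FBS, attached overnight, then exposed to compound (1% DMSO final) for 72 hr at 37° C. Viable cells counted by MTS/PMS, normalised to 1% DMSO as 100%; IC50 from triplicate experiments.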

A further assay deals with MCF-7 cells. Description: MTS/PMS cell viability assay, MCF-7. The format is cell-based. The note with it: Homo sapiens, MCF7. In short, it runs like this:
as §1

For another assay, the system named is MDA-MB-468LN cell line. Briefly: Promega CellTiter-Glo (CTG) luminescent assay, MDA-MB-468LN. It is filed as cell-based. The note with it: Homo sapiens; Table 2 biphenyl triazole analogues; 72 hr; mean ± standard deviation. The gist of the method: (§2)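 Antiproliferative activity measured after 72 hr compound treatment by CellTiter-Glo luminescence (ATP-based viability). Selected data cross-checked by MTS/PMS viability assay.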
(In general: In ATP-based viability assays light output follows the ATP content of the culture.)

The test system of the next assay is MDA1986 cell line. Briefly: Promega CellTiter-Glo (CTG) luminescent assay, MDA1986. The format is cell-based. The note with it: Table 2 biphenyl triazole analogues, 72 hr, mean ± standard deviation, read-out: IC50 MDA1986. The gist of the method:
as §2

Another assay has as its system JMAR cell line. Briefly: Promega CellTiter-Glo (CTG) luminescent assay, JMAR. The note with it: Table 2 biphenyl triazole analogues, 72 hr, mean ± standard deviation. The format is cell-based. In short, it runs like this: as §2
A further assay has as its system PC3-MM2 cells. Briefly: Sulforhodamine B assay, PC3-MM2. The format is cell-based. The note with it: Homo sapiens, PC3MM2; Table 2 biphenyl triazole analogues; mean ± standard deviation. The gist of the method:
(§3)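 Cells treated over a 10-point dose range, fixed with trichloroacetic acid, stained with sulforhodamine B, solubilised in 10 mM Tris, absorbance at 565 nm. Growth inhibition computed against time-zero and untreated wells; curves fitted by sigmoidal non-linear regression.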
(In general: In SRB staining, fixed cells bind dye roughly in proportion to their protein.)

The subject of the next assay is LNCaP cells. Briefly: Sulforhodamine B assay, LNCaP. It is filed as cell-based. The note with it: Homo sapiens, Table 2 biphenyl triazole analogues, mean ± standard deviation. The gist of the method: as §3
Assay [1] has as its system Hsp90 client proteins Her2, Akt, Raf-1 and CDK6. Briefly: Western blot analyses of Hsp90 client protein degradation in MCF-7 cell lysates. It is filed as cell-based, human. The protocol: (§4) MCF-7 cells were cultured as described above and treated with various concentrations of drug, Geldanamycin (GDA or G) in DMSO (1% DMSO final concentration), or vehicle (DMSO) for 24 hr. Cells were harvested in cold PBS and lysed in RIPA lysis buffer containing 1 mM PMSF, 2 mM sodium orthovanadate, and protease inhibitors on ice for 1 hr. Lysates were clarified at 14000 g for 10 min at 4° C. Protein concentrations were determined using the Pierce BCA protein assay kit per the manufacturer's instructions. Equal amounts of protein (15 μg) were electrophoresed under reducing conditions, transferred to a PVDF membrane, and immunoblotted with the corresponding specific antibodies. Membranes were incubated with an appropriate horseradish peroxidase-labeled secondary antibody, developed with a chemiluminescent substrate, and visualized.
A general note: Immunoblotting shows a protein as a band on a membrane.

Assay [2] concerns heat shock proteins Hsp27, Hsp70 and Hsp90. Briefly: Western blot analyses of heat shock proteins in MCF-7 cell lysates. It is filed as cell-based, human. The settings on record: MCF-7 cells, 24 h, increasing concentrations of 5f. As to the method:
as §4

The test system of the next assay is Hsp90 C-terminus. Briefly: Proteolytic fingerprinting assay of Hsp90 from rabbit reticulocyte lysate. The format is binding. The note with it: 1 mM compound; band not detected for vehicle control. The protocol:
e) Proteolytic Fingerprinting Assay
Rabbit reticulocyte (Green Hectares) incubated under conditions of protein synthesis at 30° C. in the presence of compound or vehicle (1% DMSO) for 10 minutes. Each reaction mixture contained 66.6% rabbit reticulocyte and 33.3% ATP regenerating system (10 mM creatine phosphate and 20 μg mL^−1 creatine phosphokinase) and a final concentration of 75 mM KCl. Each reaction mixture contained the indicated amount of compound. After incubating, the samples were immediately placed on ice and the indicated amount of TPCK-treated trypsin (Worthington) was added to each sample. The samples digested on ice for an additional 6 minutes and the reactions were quenched by the addition of Laemmli sample buffer followed by immediate boiling. Equal amounts of each sample were electrophoresed under reducing conditions (12% acrylamide gels), transferred to PVDF, and immunoblotted with an antibody specific to the Hsp90 C-terminus. Membranes were incubated with an appropriate horseradish peroxidase-labeled secondary antibody, developed with a chemiluminescent substrate, and visualized.

Entries after “also recorded” stand apart in the source; their conditions may differ. Read-outs that look alike come from different tables or passages of the source.

Take `Cc1ccc(Cn2cc(C(=O)Nc3ccc(-c4ccc(OC5CCN(C)CC5)cc4)cc3)nn2)cc1` [5f, 1-(4-Methylbenzyl)-N-(4′-((1-methylpiperidin-4-yl)oxy)-[1,1′-biphenyl]-4-yl)-1H-1,2,3-triazole-4-carboxamide]: the IC50 in the assay on SKBr3 cells came to 0.17 ± 0.03 µM; with MCF-7 cells (Table 2 biphenyl triazole analogues, 72 hr, mean ± standard deviation, read-out: IC50 MCF-7), 0.12 ± 0.01 µM; with MCF-7 cells (read-out: IC50 against MCF-7 cell line), 0.12 µM; in the assay on MDA-MB-468LN cell line, 0.41 ± 0.26 µM; in the assay with MDA1986 cell line, 0.36 ± 0.05 µM; in the assay on JMAR cell line, 0.42 ± 0.07 µM. Also, the IC50 turned out to be 0.36 ± 0.04 µM with PC3-MM2 cells and 0.2 ± 0.04 µM with LNCaP cells. Further, the “client proteins Her2, Akt, Raf-1 and CDK6 (Western blot, concentration series)” value in assay [1] (MCF-7 cells, 24 h, increasing concentrations) is listed as “degraded in a concentration-dependent manner”. Further, in assay [1] (MCF-7 cells, Western blot), the “concentration able to deplete Hsp90 client proteins as well as Geldanamycin at 500 nM” value was found to be 1 µM. Further, the “Hsp90 client proteins Her2, Akt and Raf-1 (Western blot)” value in assay [1] (MCF-7 lysates, 24 h, L = 1/2 and H = 5 times the antiproliferative IC50) is listed as “decreased; also recorded: Clear degradation”. The “heat shock proteins Hsp27, Hsp70, or Hsp90 levels” value in [2] was “No increase”. Moreover, the “50 kDa Hsp90 fragment on trypsin proteolysis (C-terminal Hsp90 antibody)” value in the assay on Hsp90 C-terminus stood at 50 kDa band was detected.
